The values that follow come from US10730771B2, “Method for operating reverse-osmosis membrane treatment system” (priority 2015, dated 2020).

In the assay the test system is microorganisms adhered on the surfaces of test pieces. In words: Test example I: adhesion of slime (microorganisms, as ATP) to SUS316L test pieces in flow columns. Format: cell-based. The settings on record: 13 days; for Amount of microorganisms adhered: 1.7 L/min, no treatment 121. The protocol: A test for confirming the capabilities of a combined-chlorine slime-control agent and a stabilized-bromine slime-control agent to reduce the adhesion of slime to the energy recovery device was conducted.
Water produced by treating wastewater from Kurita Global Technology Center of Kurita Water Industries Ltd. was used as test water.
In the testing apparatus, the test water fed from a pipe 20 is split into pipes 21, 22, and 23 and passed through columns 31, 32, and 33 provided with test pieces 31a, 32a, and 33a (3 cm×5 cm test pieces made of SUS316L) fixed to the respective inner walls. FI1, FI2, and FI3 represent a flow meter. V1, V2, and V3 represent a valve.
The test water was passed into the columns 31 to 33 through the branch pipes 21 to 23 at a flow rate of 1.7 L/min for 13 days. While the test water was passed through the testing apparatus, the chemical-1 was injected into the pipe 22 such that the total chlorine concentration measured by the DPD method produced by HACH was 1.0 mg/L (Test No. 2), and the chemical-2 was injected into the pipe 23 such that the total chlorine concentration measured by the same method as in Test No. 2 was 0.8 mg/L (Test No. 3). No chemical (no treatment) was added to the pipe 21 (Test No. 1).
After the test water had been passed through the testing apparatus for 13 days, the test pieces 31a to 33a were removed, and the microorganisms adhered on the surfaces thereof were sampled. The amount of microorganisms adhered on the surface of each of the test pieces was measured with a “Lumitester C-110” produced by Kikkoman Biochemifa Company. The amount of microorganisms was measured as ATP and expressed in the unit of pg/cm^2.

With `O=S(=O)([O-])NCl.[Na+]` [NHClSO3Na, sodium monochlorosulfamate], the “adhesion of microorganisms compared with no treatment” value (1.0 mg/L as total chlorine) is “reduced the adhesion of microorganisms”. In addition, the “Amount of microorganisms adhered” value (Test No. 2, 1.0 mg/L as total chlorine) is given as 49 ATP pg/cm^2.

Turning to bromosulfamate [Chemical-2], the “adhesion of microorganisms compared with no treatment” value (0.8 mg/L as total chlorine) is listed as “reduced the adhesion of microorganisms”. For the setting “Test No. 3, 0.8 mg/L as total chlorine”, the “Amount of microorganisms adhered” value was found to be 72 ATP pg/cm^2.
